Results as given in article PMC10010313, “A Phase I Study of Pelabresib (CPI-0610), a Small-Molecule Inhibitor of BET Proteins, in Patients with Relapsed or Refractory Lymphoma” (Cancer Research Communications, 2022).
Several values for one entry are separate records, joined by “and”; a condition that tells them apart may be missing. Equal entries are not always repeated. Where two headings read alike, the source gives them in different places.

Key:
[1] = tested on: ABC- diffuse large B-cell lymphoma (DLBCL) and Burkitt lymphoma (BL) cell lines; conditions: preclinical studies; cited from earlier work
[2] = parameters: method as in PMID 21949397; conditions: cited from earlier work
[3] = Plasma pharmacokinetics (LC-MS/MS, noncompartmental)
Method: (§5) To characterize the plasma PK of pelabresib for the first dose and at steady state for multiple dosing, blood samples were taken before and at 0.5, 1, 1.5, 2, 3, 4, 6, 8, and 24 hours after the initial dose; before dosing on Day 8; before and at 0.5, 1, 1.5, 2, 3, 4, 6, 8, 24, 48, 72, 96, and 120 hours after the Day 14 dose; and prior to dosing on Day 1 of Cycle 2. Blood samples were centrifuged within 30 minutes of collection to harvest the plasma which was promptly stored in cryovials maintained at −80°C. The concentration of CPI-0610 in plasma samples was determined by reverse-phase high performance liquid chromatography with tandem mass spectrometric detection. The assay was validated and applied to the analysis of study samples according to the recommendations in the current FDA guidance. At the lowest concentration included in the calibration curves, which was 0.25 ng/mL, interday accuracy was within 0.3% of the nominal concentration and the precision was 3.0%. Interday accuracy ranged from 99.9 to 101.2% and the precision ranged from 4.0 to 6.0% for all other calibration standards. Actual time points were calculated as the difference between the blood sample collection time and the time that the drug was taken. The plasma concentration–time data were analyzed by noncompartmental methods using WinNonlin version 5.0.1 (Pharsight Corp). Area under the plasma concentration–time curve from the time of dosing to the time of last sample collected prior to administration of the next dose (AUC0–24) was estimated using the linear-log trapezoidal method. Apparent oral clearance (CL/F) was calculated as the dose divided by the AUC0–24 for the dose given on Day 14. Pharmacokinetic parameters are reported as the geometric mean [geometric coefficient of variation (CV%)] of the values for individual patients at each dose level unless otherwise indicated.

[4] = tested on: patients with relapsed or refractory lymphoma; assay: Treatment-emergent adverse events, phase 1 study 0610–01; assay type: in vivo
Excerpt: Study 0610–01 was a first-in-human phase 1, multi-center, open-label, dose-escalation study of pelabresib (CPI-0610) in patients with relapsed or refractory lymphoma (NCT01949883).
Eligible patients for treatment with pelabresib were adults with relapsed non-Hodgkin or Hodgkin lymphoma after at least one prior therapy or who were not eligible for high-dose chemotherapy and autologous stem cell transplantation or had refused high-dose chemotherapy and autologous stem cell transplantation. Patients were required to have platelet count ≥75 × 10^9/L, absolute neutrophil count ≥1.0 × 10^9/L, and Eastern Cooperative Oncology Group performance status of 2 or less.
(§1) Pelabresib was administered once daily (QD) for 14 days followed by a 7-day break, in continuous 21-day cycles to prevent/ameliorate thrombocytopenia. Cohorts of 3 to 6 patients were sequentially enrolled with increasing doses of pelabresib (6, 12, 24, 48, 80, 120, 170, 230, and 300 mg with the capsule formulation and 125 mg and 225 mg with the micronized tablet formulation) until the MTD was determined. Pelabresib was administered under fasting conditions (no food intake 2 hours before until 1 hour after study drug administration).
(§2) The primary objective of the study was to determine the MTD of pelabresib with characterization of dose-limiting toxicities (DLT) as a primary endpoint. Secondary objectives included adverse events (AE) and serious adverse events (SAE); tumor response according to 2007 Revised Response Criteria for Malignant Lymphoma ([13]); plasma concentration of pelabresib; PK parameters; changes in expression of MYC and other genes sensitive to BET inhibition; and changes in levels of selected mRNAs that are expressed in PBMCs and are sensitive to BET inhibition.
(§3) The MTD of pelabresib was defined as the highest dose that could be given without causing DLT in 33% or more of the patients treated at that dose (capsules or tablets). Dose-escalation followed a traditional “3 + 3” design based on the frequency of DLT. All patients who were treated with at least 1 dose of pelabresib were included in the Safety Population and used for all tabulations of demographic information, baseline characteristics, safety, PK, pharmacodynamic, and efficacy analyses.

[5] = crystalline form of pelabresib; cited from earlier work
NF-κB signaling = conditions: preclinical studies; cited from earlier work
[6] = tested on: IL8 and CCR1 gene expression; assay: PK/PD analysis of maximum gene suppression versus exposure (Emax model); assay type: in vivo, human
Method: To further explore the relationship between pelabresib exposure and suppression of gene expression, individual maximum gene suppression (the nadir of individual gene expression versus time profiles) was plotted as a continuous function of individual Cmax and AUC for both CCR1 and IL8. […] In total, based on this analysis, pharmacodynamic responses of at least 50% suppression in gene expression are evident at AUC and Cmax as low as 4,000 ng/hr/mL and 500 ng/mL, respectively. These exposures were achieved on average at capsule doses of 80 mg and above and were exceeded at both tablet doses.

IL8 = IL8 mRNA expression in patient whole blood (qPCR); assay type: in vivo, human
Excerpt: (§4) Whole (peripheral) blood samples were also collected at selected time points that coincided with PK sampling. Blood from patients was drawn into PAXgene blood RNA tubes (Becton Dickinson) at the clinical sites and shipped frozen to the Massachusetts General Hospital (MGH, Boston, MA) for processing. RNA was purified using a PAXgene Blood RNA Kit IVD (Qiagen) according to the manufacturer's protocol and quantitated using a Nanodrop 8000 (Thermo Scientific). RNA isolated from PBMCs was used to synthesize cDNA for qPCR analysis and gene expression was assessed by qPCR using a CCR1 or IL8 TaqMan assay. Housekeeping genes were assessed using B2M TaqMan assay, PPIB Universal Probe Library (UPL) or TaqMan assay. Relative gene expression for CCR1 and IL8 was determined after normalization to the geometric mean of the two housekeeping genes (B2M and PPIB).

MYC = tested on: MYC; parameters: method as in PMID 21949397; conditions: cited from earlier work
[7] = tested on: relapsed or refractory lymphoma; assay: Tumor response, 2007 Revised Response Criteria for Malignant Lymphoma; assay type: in vivo, human
Excerpt: as §2, §3

[8] = human, in vivo
Method: as §5

platelet count = assay: Platelet count values versus pelabresib dose; assay type: in vivo, human; conditions: QD 14 days on, 7 days off
Excerpt: To accommodate for different baseline platelet count values in different patients, changes in platelet count values were expressed as a fraction or ratio of the baseline value. There was a strong correlation between the Day 14:Day 1 platelet count ratio and pelabresib dose (R^2 = 0.81).

CCR1 = CCR1 mRNA expression in patient whole blood (qPCR); assay type: in vivo, human
Excerpt: as §4

[9] = tested on: patients with relapsed or refractory lymphoma; assay: Dose-limiting toxicities / MTD determination (3 + 3 dose escalation); assay type: in vivo
Method: as §1, §2, §3

clinical = conditions: human, in vivo
Method: as §5

[10] = individual maximum gene suppression, inhibitory Emax model
[11] = including both tablet dose levels
[12] = whole blood, 2, 6 and 8 hours after administration

## Cc1noc2c1-c1ccccc1C(c1ccc(Cl)cc1)=N[C@H]2CC(N)=O [pelabresib]
[1]
  Effect on viability: loss of viability
[2]
  Clearance in mice: rapid clearance
[3]; capsule formulation, 14 days of continuous QD dosing
  Accumulation, mean (±SD): 20.5 ± 7.2%
[3]; human, plasma, oral, Terminal half-life, geometric mean (geometric CV), capsule
  half-life: 11.6 h
[3]; in vivo
  Tablet dose approximately corresponding to the 120 mg capsule dose level: ~75 mg
[3]; tablet dosage form, Day 14
  Apparent oral clearance, geometric mean (geometric CV): 12.3 (27.2%) L/h
[4]; cause disease progression, none considered related to the investigational product
  Patients who died while on study: 9 (14.1%) patients (%)
[4]; grade 5
  SAE disease progression: 7 patients
[4]; human, in vivo
  Anemia of Grade 3 or higher: 7 (10.9%) patients (%)
  Diarrhea of Grade 3 or higher: 4 (6.3%) patients (%)
  Gastrointestinal TEAEs: 43 (67.2%) patients (%)
  Patients with at least 1 TEAE: 64 patients
  Patients with at least 1 TEAE of Grade 3 or higher intensity: 44 (68.8%) patients (%)
  SAE diarrhea: 4 patients
  SAE disease progression: 1 patient
  SAE pain: 2 patients
  SAE pneumonia: 2 patients
  TEAE Anemia: 16 (25.0) n (%)
  TEAE Decreased appetite: 17 (26.6) n (%)
  TEAE Diarrhea: 12 (18.8) n (%)
  TEAE Dysgeusia: 10 (15.6) n (%)
  TEAE Fatigue: 23 (35.9) n (%)
  TEAE Hyperglycemia: 12 (18.8) n (%)
  TEAE Lymphopenia: 13 (20.3) n (%)
  TEAE Nausea: 18 (28.1) n (%)
  TEAE Thrombocytopenia events: 29 (45.3) n (%)
  TEAE Vomiting: 13 (20.3) n (%)
  TEAEs that led to treatment discontinuation: 9 (14.1%) patients (%)
  Thrombocytopenia events of Grade 3 or higher: 13 (20.3%) patients (%)
  Treatment-emergent SAEs: 27 (42.2%) patients (%)
[5]
  Aqueous solubility: low
NF-κB signaling
  Effect on NF-κB signaling activity: downregulation
[6]; exceeded at both tablet doses
  Capsule doses at which these exposures (AUC 4,000, Cmax 500) were achieved on average: ≥ 80 mg
[6]; [10]
  AUC at which at least 50% suppression in gene expression is evident: ≥ 4,000 ng/hr/mL
  Cmax at which at least 50% suppression in gene expression is evident: ≥ 500 ng/mL
IL8; capsule
  Dose level with maximum reduction of IL8 expression: 120 mg
IL8; [11]
  Capsule doses at whose exposures suppression of IL8 was much more apparent: greater than or equal to 120 mg
IL8; whole blood
  Earliest time of decreased IL8 expression postdose: ≤ 2 h
IL8; [12]
  Capsule dose above which appreciable changes in expression of IL8 were shown: above 120 mg
MYC; single 30 mg/kg oral dose ref 11
  Time by which MYC expression had returned to its baseline value: ≤ 12 h
MYC; single 30 mg/kg oral dose, 4 hours postdosing, immunodeficient mice ref 11
  Maximum inhibition of MYC expression in tumor tissue: 75%
MYC; single 30 mg/kg oral dose, earliest postdosing time point assessed ref 11
  Time of maximum inhibition of MYC expression: 4 h
[7]; 4 of 64 patients
  Overall response rate (CR + PR): 6.2%
[7]; 64 patients
  Patients with prolonged (>6 months) stable disease: 5 patients
[7]; Overall N = 64
  Best overall response CR: 2 (3.1%) n (%) and 2 (3.1) n (%)
  Best overall response PR: 2 (3.1%) n (%) and 2 (3.1) n (%)
  Best overall response SD: 21 (32.8%) n (%) and 21 (32.8) n (%)
[7]; Overall N = 64, all doses and formulations
  Overall response rate (CR + PR): 4 (6.2) n (%)
[7]; QD capsule
  Lowest dose at which complete remission was achieved: 48 mg
[7]; patients with CR or PR
  Median duration of response (CR or PR), (range): 8.4 (6.1–46.1) weeks
  Time to treatment (CR or PR): 4–18 cycles
[7]; patients with CR or PR, 21-day cycles
  Time to response (CR or PR): 2–6 cycles
[8]
  Factor to convert tablet doses to capsule doses: 1.34
  Range of time of peak plasma concentrations: 0.9 to 7.9 h
[8]; 225 mg
  Mean AUC0–24: 20,700 ng/h/mL
[8]; 14 days
  Accumulation at most: ≤ 40%
  Accumulation, mean (±SD): 4.3 ± 1.0%
Platelet count
  Character of decreases in platelet count values: dose dependent, reversible, and non-cumulative
CCR1; [11]
  Capsule doses at whose exposures suppression of CCR1 was much more apparent: ≥ 170 mg
CCR1; whole blood
  Earliest time of decreased CCR1 expression postdose: ≤ 2 h
CCR1; [12]
  Capsule dose above which appreciable changes in expression of CCR1 were shown: > 170 mg
[9]; human, in vivo, 14 days
  Recommended phase 2 dose (RP2D): 125 mg
[9]; human, in vivo, 21 days
  DLTs: gastrointestinal (GI) events: 2
  DLTs: hematologic events: 5
  DLTs: rash: 1
  Total DLT events considered for dose-escalation: 8
[9]; tablet, QD for 14 days with a 7-day break
  MTD: 225 mg
clinical; 225 mg
  Cmax: 2020 ng/mL
clinical; Exposure (bioavailability) of tablet greater than capsule
  bioavailability: 60%
clinical; Half-life (mean apparent terminal phase)
  half-life: ~15 h
clinical; Median time of peak plasma concentrations
  Tmax: 1.9 h
clinical; Median time to maximum plasma concentrations
  Tmax: 2 h
clinical; Range of time of peak plasma concentrations
  Tmax: 0.5 to 7.4 h
clinical; Terminal half-life, geometric mean (geometric CV)
  half-life: 15.3 h
